The test system of one series is Escherichia coli. Description: Antibacterial activity against Escherichia coli SG 458. The format is functional, organism-based.
The next series has as its system Proteus vulgaris. Description: Antibacterial activity against Proteus vulgaris OX 19. Format: functional, organism-based.
Series [1] relates to Mycolicibacterium smegmatis. Kind of series: Antimycobacterial activity against Mycobacterium smegmatis SG 987. The format is functional, organism-based.
Series [2] deals with Mycolicibacterium aurum. Kind of series: Antimycobacterial activity against Mycobacterium aurum SB 66. Format: functional, organism-based.
The test system of series [3] is Mycolicibacterium aurum. Kind of series: Antimycobacterial activity against Mycobacterium aurum DSM 43536. Format: functional, organism-based.
Series [4] has as its system Mycolicibacterium vaccae. Kind of series: Antimycobacterial activity against Mycobacterium vaccae 10670. The format is functional, organism-based.
Series [5] relates to Mycolicibacterium fortuitum. Kind of series: Antimycobacterial activity against Mycobacterium fortuitum B. Format: functional, organism-based.
The subject of series [6] is Sporobolomyces salmonicolor. Kind of series: Antimicrobial activity against Sporobolomyces salmonicolor SBUG 549. Format: functional, organism-based.
A further series deals with Candida albicans. Description: Antifungal activity against Candida albicans. Format: functional, organism-based.
The next series relates to Colletotrichum. Kind of series: Antifungal activity against Glomerella. Format: functional, organism-based.
The test system of series [7] is Mycobacterium avium. Description: Antimycobacterial activity against Mycobacterium avium MAC 100. The format is functional, organism-based.
For series [8], the system named is Mycobacterium avium. Description: Antimycobacterial activity against Mycobacterium avium MAC 101. The format is functional, organism-based.
In series [9] the test system is Mycobacterium avium. Description: Antimycobacterial activity against Mycobacterium avium MAC 108. The format is functional, organism-based.
Series [10] has as its system Mycobacterium avium. Description: Antimycobacterial activity against Mycobacterium avium MAC 109. The format is functional, organism-based.
The test system of series [11] is Mycobacterium avium. Description: Antimycobacterial activity against Mycobacterium avium MAC 116. Format: functional, organism-based.
The test system of series [12] is Mycolicibacterium vaccae. Description: Antimycobacterial activity against Mycobacterium vaccae 10670 by agar diffusion assay. Format: functional, organism-based. (A growth-free zone around the sample is the usual read-out of agar diffusion tests.)
In series [13] the test system is Mycolicibacterium fortuitum. Kind of series: Antimycobacterial activity against Mycobacterium fortuitum B by agar diffusion assay. Format: functional, organism-based.
In series [14] the test system is Mus musculus. Kind of series: Toxicity in mouse assessed as change in body weight at 100 mg/kg, po qd for 5 days followed by 2 days rest and 200 mg/kg, po qd for 5 days. As to conditions: in vivo. The format is organism-based.
For series [15], the system named is Mus musculus. Kind of series: Toxicity in mouse assessed as change in gross appearance at 100 mg/kg, po qd for 5 days followed by 2 days rest and 200 mg/kg, po qd for 5 days. The format is organism-based. The note with it: in vivo.
Series [16] concerns Mus musculus. Description: Toxicity in mouse assessed as behavioral change at 100 mg/kg, po qd for 5 days followed by 2 days rest and 200 mg/kg, po qd for 5 days. Format: organism-based. The note with it: in vivo.
Series [17] relates to Mycobacterium tuberculosis. Kind of series: Antimycobacterial activity against Mycobacterium tuberculosis Erdman infected in BALB/c mouse assessed as reduction of bacterial load at 200 mg/kg, po qd for 5 days per week administered 60 days after infection measured after 85 days post infection. Format: functional, organism-based. On the set-up: dose 200 mg/kg.
In series [18] the test system is Mycobacterium tuberculosis. Description: Antimycobacterial activity against Mycobacterium tuberculosis Erdman infected in BALB/c mouse assessed as reduction of bacterial load at 50 mg/kg, po qd for 5 days per week administered 60 days after infection measured after 85 days post infection. The format is functional, organism-based. On the set-up: dose 50 mg/kg.
The nature of series [19]: Chemical stability in simulated gastric fluid assessed as compound remaining after 2 hrs by HPLC analysis. Format: physicochemical. The note with it: simulated gi fluid.
Another series concerns Liver microsomes. Description: Metabolic stability in Sprague-Dawley rat microsomes assessed as compound remaining after 15 mins by HPLC analysis. The format is ADME, Microsome. The note with it: 0.25 h.
Series [20] concerns Mycobacterium tuberculosis. Description: Antimycobacterial activity against Mycobacterium tuberculosis H37Rv ATCC 27294 in GAS medium after 1 week by microplate alamar blue assay. The note with it: H37Rv ATCC 27294, 168 h. Format: functional.
Series [21] relates to Mycobacterium tuberculosis. Description: Antimycobacterial activity against Mycobacterium tuberculosis H37Rv ATCC 27294 in GAST medium after 1 week by microplate alamar blue assay. As to conditions: H37Rv ATCC 27294, 168 h. The format is functional. A general note: Resazurin is reduced to fluorescent resorufin, in cell work by metabolically active cells.
For a further series, the system named is Vero. Description: Cytotoxicity against african green monkey Vero cells by colorimetric assay. The format is cell-based. The note with it: Chlorocebus sabaeus.
In series [22] the test system is Mycobacterium tuberculosis. Kind of series: Antimycobacterial activity against Mycobacterium tuberculosis H37Rv ATCC 27294 incubated 10 days under anaerobic condition measured after 24 hrs recovery in air by luciferase based low oxygen recovery assay. Format: functional.
The next series has as its system Bacillus subtilis. Description: Antibacterial activity against Bacillus subtilis ATCC 6633. The format is functional, organism-based.
The subject of another series is Staphylococcus aureus. Description: Antibacterial activity against Staphylococcus aureus SG 511. The format is functional, organism-based.
A further series has as its system Micrococcus luteus. Kind of series: Antibacterial activity against Micrococcus luteus ATCC 10240. The format is functional, organism-based.
Series [23] concerns Mycobacterium tuberculosis. Kind of series: Antimycobacterial activity against Mycobacterium tuberculosis. The format is functional.
The test system of series [24] is Mycobacterium tuberculosis. Kind of series: Antimycobacterial activity against Mycobacterium tuberculosis assessed as growth inhibition at 12.5 ug/mL. Format: functional.
Series [25] concerns Mycolicibacterium smegmatis. Description: Antimycobacterial activity against Mycobacterium smegmatis. The format is functional.
Series [26] deals with Mycobacterium tuberculosis. Description: Antimycobacterial activity against Mycobacterium tuberculosis H37Rv. Format: functional.
Series [27] has as its system Mycobacterium tuberculosis. Kind of series: Antimycobacterial activity against Mycobacterium tuberculosis Erdman infected in BALB/c mouse assessed as reduction of bacterial load at 10 mg/kg, po qd for 5 days per week administered 60 days after infection measured after 85 days post infection relative to untreated control. The format is functional.

These results are taken from ChEMBL document CHEMBL1157845, “Structure-activity relationship of new anti-tuberculosis agents derived from oxazoline and oxazole benzyl esters” (Eur J Med Chem, 2010).

SMILES strings stand for the structures. In brackets after ≈: the same amount, converted by molar mass. Activity calls are given as the source filed them. Unless noted, no cut-off for these calls is given here. Bounds are passed on as bounds.

In general, MIC refers to the lowest concentration found to suppress growth. As a reminder, the IC50 is the midpoint of a concentration-inhibition curve. With `O=C(OCc1ccccc1)c1coc(-c2ccc(F)c([N+](=O)[O-])c2)n1`, the result (with Escherichia coli; with Proteus vulgaris; in [1]; with Mycolicibacterium aurum [2]; in the series with Mycolicibacterium aurum [3]; with Mycolicibacterium vaccae [4]) was inactive. Moreover, the outcome (in series [5]; in series [6]; in the series on Candida albicans; in the series with Colletotrichum; in the series on Mycobacterium avium [7]; in the series on Mycobacterium avium [8]) was inactive. The result (with Mycobacterium avium [9]; with Mycobacterium avium [10]; in the series on Mycobacterium avium [11]; in series [17]; in series [18]; with Bacillus subtilis) was inactive. For the same molecule, the result with Staphylococcus aureus and in the series on Micrococcus luteus was inactive. The result (with Mycolicibacterium vaccae [12]; in series [13]) was Active. The figures for the Activity in the series with Mus musculus [14], in the series with Mus musculus [15] and in the series with Mus musculus [16] were 12%, “Non-toxic” and “Non-toxic”, respectively. Also, the Stability in [19] is recorded as 2.1%; with Liver microsomes, 8.1%. Also, the minimal inhibitory concentration (MIC) was 1.1 µM (≈ 0.377 µg/mL) in series [20], 0.48 µM (≈ 0.164 µg/mL) in series [21] and 31.9 µM (≈ 10.9 µg/mL) in series [22]. The molecule also yielded a half-inhibitory concentration (IC50) in the series with Vero above 128 µM.

For the molecule `O=C(OCc1ccccc1)[C@@H]1COC(c2ccccc2OCc2ccccc2)=N1`, the Activity entry in the series on Mus musculus [14], in the series with Mus musculus [15] and in the series on Mus musculus [16] was “Non-toxic” throughout. For the same molecule, the result in [17] was inactive. Besides, the Stability is 1.4% in series [19] and 8.4% in the series on Liver microsomes. For the same molecule, the minimal inhibitory concentration (MIC) in series [23] came out at 7.7 µM (≈ 2.98 µg/mL); in series [20] it was 12.6 µM (≈ 4.88 µg/mL); in series [22], 67.3 µM (≈ 26.1 µg/mL). The molecule further displayed a half-maximal inhibitory concentration (IC50) with Vero above 128 µM.

With `O=C(OCc1ccccc1)c1coc(-c2ccccc2Cl)n1`, the result (in the series on Escherichia coli; in the series on Proteus vulgaris; in [1]; in the series on Mycolicibacterium aurum [2]; with Mycolicibacterium aurum [3]; with Mycolicibacterium vaccae [4]) was inactive. The outcome (in series [5]; in [6]; with Candida albicans; in the series on Colletotrichum; in the series with Mycobacterium avium [7]; in the series on Mycobacterium avium [8]) was inactive. The outcome (with Mycobacterium avium [9]; in the series on Mycobacterium avium [10]; in the series on Mycobacterium avium [11]; in series [17]; in the series on Bacillus subtilis; in the series with Staphylococcus aureus) was inactive. Moreover, in the series with Micrococcus luteus, the result was inactive. Also, the result (with Mycolicibacterium vaccae [12]; in series [13]) was Active. The Activity entry with Mus musculus [14], with Mus musculus [15] and in the series on Mus musculus [16] was “Non-toxic” throughout. Further, the Stability is recorded as 4.2% in [19] and 8.8% with Liver microsomes. Further, the minimal inhibitory concentration (MIC) in [20] was 0.73 µM (≈ 0.229 µg/mL); in series [21], 1.69 µM (≈ 0.53 µg/mL); in [22], 11.4 µM (≈ 3.58 µg/mL). Also, in the series on Vero, the 50% inhibitory concentration (IC50) was above 128 µM.

In general, inhibition refers to the percentage by which the read-out fell short of the control. In the case of `CCCCCCCCCCCCCCCC(=O)N(O)CCCC[C@H](NC(=O)[C@@H]1COC(c2ccccc2O)=N1)C(=O)O[C@@H](C)CC(=O)N[C@H]1CCCCN(O)C1=O` [MYCOBACTIN S], the result (in the series on Escherichia coli; with Proteus vulgaris; in series [1]; with Mycolicibacterium aurum [2]; with Mycolicibacterium aurum [3]; with Mycolicibacterium vaccae [4]) was inactive. The result (in series [5]; in series [6]; with Candida albicans; in the series with Colletotrichum; with Mycobacterium avium [7]; with Mycobacterium avium [8]) was inactive. The outcome (in the series with Mycobacterium avium [9]; in the series with Mycobacterium avium [10]; in the series with Mycobacterium avium [11]; in [17]; with Bacillus subtilis; in the series on Staphylococcus aureus) was inactive. The result with Micrococcus luteus was inactive. Further, the outcome (in the series on Mycolicibacterium vaccae [12]; in series [13]) was Active. Also, the inhibition at 12.5 µg/mL in series [24] stood at 99%. For the same molecule, the minimal inhibitory concentration (MIC) in series [25] was 3.1 µM (≈ 2.49 µg/mL).

`CCCCCCCCCCCCCCCC(=O)N(O)CCCC[C@H](NC(=O)[C@@H]1COC(c2ccccc2O)=N1)C(=O)OC[C@H](NC(=O)OC(C)(C)C)C(=O)N[C@H]1CCCCN(O)C1=O`: the outcome in series [17] was inactive. Also, the values for the MIC in [26] and in series [25] were below 0.2 µM and 0.2 µM (≈ 0.181 µg/mL), respectively.

Regarding `CO[C@H]1/C=C/O[C@@]2(C)Oc3c(C)c(O)c4c(O)c(c(/C=N/N5CCN(C)CC5)c(O)c4c3C2=O)NC(=O)/C(C)=C\C=C\[C@H](C)[C@H](O)[C@@H](C)[C@@H](O)[C@@H](C)[C@H](OC(C)=O)[C@@H]1C` [RIFAMPIN], the “fold change (FC)” value in series [27] is listed as above 2. For the same molecule, the minimum inhibitory concentration (MIC) in [20] is 0.06 µM (≈ 0.0494 µg/mL); in [21], 0.01 µM (≈ 0.00823 µg/mL). Further, in the series on Vero, the half-inhibitory concentration (IC50) was found to be 125 µM.
